This is an account of results in ChEMBL document CHEMBL4000232, “Structure-based optimization of 1H-imidazole-2-carboxamides as Axl kinase inhibitors utilizing a Mer mutant surrogate” (Bioorg Med Chem Lett, 2017).

Structures are written as SMILES.

Usually bioavailability stands for the share of a dose that reaches the circulation, judged against a reference dose that is usually intravenous. A lower bioavailability goes with little systemic uptake. In general, inhibition refers to the change of the read-out against control, counted positive when it falls. Low values mean a weak effect, high ones a strong effect. The clearance is a measure of how efficiently the substance is removed, as volume per time. The low end stands for a low capacity for elimination, the high end for a high capacity for elimination. By IC50 is commonly meant the point on the concentration scale where inhibition reaches its midpoint.

Series [1] can be described thus: Permeability of the compound by PAMPA. It counts as physicochemical. The conditions noted are these: read-out: permeability.
Series [2] can be described thus: Oral bioavailability in rat. The conditions noted are these: in vivo. The format is ADME, organism-based.
For series [3], the target named is hERG (KCNH2) (Homo sapiens, UniProt Q12809). As to the kind of experiment: Inhibition of human ERG at 10 uM relative to control.
Series [4] can be described thus: Clearance in rat. It counts as ADME. The conditions noted are these: in vivo.
The target in series [5] is T1, Tyrosine-protein kinase receptor UFO (Homo sapiens, UniProt P30530).
T1 sequence (P30530 whole entry): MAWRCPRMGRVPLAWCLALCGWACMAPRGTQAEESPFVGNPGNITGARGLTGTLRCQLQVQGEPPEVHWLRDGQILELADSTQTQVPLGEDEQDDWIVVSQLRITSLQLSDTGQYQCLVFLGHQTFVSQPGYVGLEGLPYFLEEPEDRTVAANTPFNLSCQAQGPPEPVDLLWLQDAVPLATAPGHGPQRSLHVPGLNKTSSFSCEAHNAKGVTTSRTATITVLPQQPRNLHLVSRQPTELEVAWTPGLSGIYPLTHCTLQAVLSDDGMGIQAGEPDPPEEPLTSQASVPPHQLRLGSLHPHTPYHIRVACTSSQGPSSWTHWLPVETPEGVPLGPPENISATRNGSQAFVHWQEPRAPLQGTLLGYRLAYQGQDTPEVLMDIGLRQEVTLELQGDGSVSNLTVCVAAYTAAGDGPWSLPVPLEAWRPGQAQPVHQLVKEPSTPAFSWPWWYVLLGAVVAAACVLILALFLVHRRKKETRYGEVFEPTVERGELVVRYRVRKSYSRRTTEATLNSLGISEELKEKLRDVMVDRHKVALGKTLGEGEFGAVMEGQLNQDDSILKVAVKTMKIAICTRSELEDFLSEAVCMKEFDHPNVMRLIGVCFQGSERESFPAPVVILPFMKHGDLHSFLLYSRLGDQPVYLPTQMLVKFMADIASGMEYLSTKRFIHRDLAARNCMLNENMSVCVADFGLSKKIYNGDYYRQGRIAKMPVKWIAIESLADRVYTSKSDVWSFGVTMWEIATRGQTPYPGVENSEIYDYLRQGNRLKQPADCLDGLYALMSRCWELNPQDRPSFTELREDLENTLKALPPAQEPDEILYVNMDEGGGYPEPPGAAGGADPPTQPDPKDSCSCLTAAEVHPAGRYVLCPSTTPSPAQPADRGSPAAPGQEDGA
As to the kind of experiment: Inhibition of Axl (unknown origin).

Series [6] in a line: Extraction ratio in rat hepatic microsomes. The format is ADME, Microsome. The settings on record: liver microsomes, read-out: ERH. (In general: Microsomes from liver hold many membrane-bound enzymes, among them those of drug oxidation.)
Series [7] can be described thus: Extraction ratio in human hepatic microsomes. The format is ADME, Microsome. The settings on record: liver microsomes, read-out: ERH.
The test system of series [8] is Liver. The series is described as follows: Intrinsic clearance in rat liver microsomes. It counts as ADME, microsome.
Series [9] in a line: Protein binding in human plasma. The settings on record: read-out: PPB (converted). It counts as ADME, cell-free.
Series [10] concerns HepG2. The series is described as follows: Cytotoxicity against human HepG2 cells. The format is functional.
Series [11] can be described thus: Protein binding in rat plasma. The format is ADME, cell-free. The conditions noted are these: read-out: PPB (converted).
Series [12] is described as follows: Inhibition of CYP450 (unknown origin). It counts as ADME. The conditions noted are these: human.

Chain of hERG (KCNH2) (Q12809 whole entry): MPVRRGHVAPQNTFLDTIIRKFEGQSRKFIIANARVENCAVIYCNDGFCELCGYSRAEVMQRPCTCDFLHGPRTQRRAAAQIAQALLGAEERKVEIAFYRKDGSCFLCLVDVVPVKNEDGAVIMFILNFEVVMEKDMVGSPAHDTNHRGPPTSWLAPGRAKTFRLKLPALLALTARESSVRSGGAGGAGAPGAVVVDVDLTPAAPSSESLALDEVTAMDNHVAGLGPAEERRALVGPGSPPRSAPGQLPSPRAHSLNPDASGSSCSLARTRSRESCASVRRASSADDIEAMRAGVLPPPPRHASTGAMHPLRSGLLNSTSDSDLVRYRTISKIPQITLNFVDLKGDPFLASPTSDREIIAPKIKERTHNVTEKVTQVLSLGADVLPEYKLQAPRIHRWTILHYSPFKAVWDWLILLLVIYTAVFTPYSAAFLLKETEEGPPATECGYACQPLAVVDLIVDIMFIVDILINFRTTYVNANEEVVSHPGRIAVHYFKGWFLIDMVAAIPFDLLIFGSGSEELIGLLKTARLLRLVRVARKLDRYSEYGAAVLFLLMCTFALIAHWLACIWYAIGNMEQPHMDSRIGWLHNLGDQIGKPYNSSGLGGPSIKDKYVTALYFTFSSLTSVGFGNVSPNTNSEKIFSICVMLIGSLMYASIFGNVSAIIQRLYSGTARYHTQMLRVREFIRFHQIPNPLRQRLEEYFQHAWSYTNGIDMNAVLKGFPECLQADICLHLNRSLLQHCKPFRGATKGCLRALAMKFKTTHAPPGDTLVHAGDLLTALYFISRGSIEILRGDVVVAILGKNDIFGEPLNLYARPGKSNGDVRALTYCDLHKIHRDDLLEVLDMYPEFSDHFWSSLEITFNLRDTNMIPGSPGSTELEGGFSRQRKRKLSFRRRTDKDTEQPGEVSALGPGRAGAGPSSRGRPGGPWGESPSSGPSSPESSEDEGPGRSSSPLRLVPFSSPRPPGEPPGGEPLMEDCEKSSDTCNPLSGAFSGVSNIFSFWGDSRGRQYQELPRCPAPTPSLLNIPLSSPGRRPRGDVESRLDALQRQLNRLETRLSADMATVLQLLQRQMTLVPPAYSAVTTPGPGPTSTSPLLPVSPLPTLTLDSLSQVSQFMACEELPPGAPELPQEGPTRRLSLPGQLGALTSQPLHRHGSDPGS

`CS(=O)(=O)N1CCC[C@H](c2csc(-c3ccccc3NC(=O)c3ncc[nH]3)n2)C1`: in series [1], the Papp turned out to be 15.7 ×10⁻⁶ cm/s. The bioavailability in series [2] is 13%. The compound further returned an inhibition at 10 µM in series [3] of 94%. The same compound gave a clearance in [4] of 20 mL/min/kg.
For the compound `CS(=O)(=O)N1CCC[C@H](c2csc(-c3ccccc3NC(=O)c3nc4ccccc4[nH]3)n2)C1`, the IC50 in series [5] was > 1000 nM. For the same compound, the hepatic extraction ratio amounted to 0.87 in series [6] and 0.86 in series [7].
For `COC(=O)N1CCC[C@H](c2csc(-c3ccccc3NC(=O)c3ncc[nH]3)n2)C1`, in [5], the IC50 is > 1000 nM. Besides, the hepatic extraction ratio in [6] was determined as 0.69; in series [7], 0.75.
The corresponding values for `CS(=O)(=O)N1CCC[C@H](c2csc(-c3ccccc3NC(=O)c3cnc[nH]3)n2)C1` are > 1000 nM, 0.71 and 0.9.
In the case of `CS(=O)(=O)N1CCO[C@H](c2csc(-c3cc(N4CCOCC4)ccc3NC(=O)c3ncc[nH]3)n2)C1`, the Papp in series [1] amounted to 18.4 ×10⁻⁶ cm/s. The compound further had a CLH in series [8] of 35 mL/min/kg. Besides, the fraction unbound in [9] was 0.21; in [11] it was 0.1. The compound further registered an Activity in series [10] of 14 µM. In addition, the “inhibition (INH)” value in series [12] is > 16%. This compound showed a bioavailability in series [2] of 38%. This compound returned an inhibition at 10 µM in series [3] of 19%. In series [4], this compound came in with a clearance of 54 mL/min/kg.
For `CC(=O)N1CCC[C@H](c2csc(-c3ccccc3NC(=O)c3ncc[nH]3)n2)C1`, the concentration for half-maximal inhibition (IC50) in series [5] was > 1000 nM. Besides, the hepatic extraction ratio in [6] was 0.67; in [7], 0.78.
For the compound `CCS(=O)(=O)N1CCC[C@H](c2csc(-c3ccccc3NC(=O)c3ncc[nH]3)n2)C1`, the IC50 in series [5] was > 630 nM. The hepatic extraction ratio in [6] was found to be 0.86; in series [7] it was 0.95.
